Results reported in patent US11304886B2, “N-acyl sarcosines as antimicrobials for preservation of home and personal care products” (GALAXY SURFACTANTS LTD., priority 2016, dated 2022).

Columns and labels:
Assay in all cases: Minimum Inhibitory Concentration (MIC)
Type in all cases: cell-based
[1] = system: Escherichia coli ATCC 8739
[2] = system: Pseudomonas aeruginosa ATCC 15442
[3] = system: Propionibacterium acnes ATCC 1953
[4] = system: Malassezia furfur MTCC 1374
[5] = system: Aspergillus niger ATCC 16404
[6] = system: Staphylococcus aureus ATCC 6538
[7] = system: Candida albicans ATCC 10231

## CCCCCCCC(=O)N(C)CC(=O)O [N-Capryloyl sarcosine, N-Capryloyl Sarcosine]
[1]
  MIC (%): 0.7%
[2]
  MIC (%): 0.7%
[3]
  MIC (%): 0.6%
[4]
  MIC (%): 0.6%
[5]
  MIC (%): >1.0%
[6]
  MIC (%): 0.7%
[7]
  MIC (%): 0.7%

## OCCOc1ccccc1 [phenoxy ethanol, 2-phenoxy ethanol, reference compound]
[1]
  MIC (%): 0.6%
[2]
  MIC (%): 0.8%
[3]
  MIC (%): 0.4%
[4]
  MIC (%): 0.6%
[5]
  MIC (%): 0.9%
[6]
  MIC (%): 0.8%
[7]
  MIC (%): 0.6%

## C=CCCCCCCCCC(=O)N(C)CC(=O)O [N-Undecylenoyl sarcosine, N-Undecylenoyl Sarcosine]
[1]
  MIC (%): 0.7%
[2]
  MIC (%): 0.6%
[3]
  MIC (%): 0.7%
[4]
  MIC (%): 0.6%
[5]
  MIC (%): >1.0%
[6]
  MIC (%): 0.6%
[7]
  MIC (%): 0.6%
